Results reported in patent EP4793271A1, “NEUROPROTECTIVE AGENT” (National Center of Neurology and Psychiatry, priority 2023, dated 2025).
Where two headings read alike, the source gives them in different places.

Tests used:
[1] = target: T1, nicotinamide phosphoribosyl transferase (NAMPT) (Homo sapiens, UniProt P43490); assay: NAMPT activity measurement (NMN fluorescence detection); format: biochemical; conditions: NAMPT recombinant protein, 10 µM Nam; for IC50: read-out: Evaluation on NAMPT inhibitory
T1 construct: purchased Medical & Biological Laboratories Co., Ltd. (MBL)
T1 sequence (P43490 whole entry, species assumed): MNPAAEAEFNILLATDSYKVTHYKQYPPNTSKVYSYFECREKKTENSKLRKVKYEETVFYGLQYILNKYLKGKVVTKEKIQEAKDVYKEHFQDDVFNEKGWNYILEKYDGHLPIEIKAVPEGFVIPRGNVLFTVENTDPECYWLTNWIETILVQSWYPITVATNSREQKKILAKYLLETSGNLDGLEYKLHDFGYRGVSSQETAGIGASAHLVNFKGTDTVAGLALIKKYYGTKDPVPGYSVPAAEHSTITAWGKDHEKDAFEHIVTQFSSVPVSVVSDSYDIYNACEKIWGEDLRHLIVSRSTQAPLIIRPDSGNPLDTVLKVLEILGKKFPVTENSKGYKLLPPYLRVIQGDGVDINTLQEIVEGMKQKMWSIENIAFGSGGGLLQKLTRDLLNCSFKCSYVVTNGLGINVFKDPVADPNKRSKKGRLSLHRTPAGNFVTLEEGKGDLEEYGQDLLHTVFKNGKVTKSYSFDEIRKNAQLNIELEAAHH
Procedure, shortened: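 Recombinant NAMPT reacted with 10 µM Nam, 0.5 µM PRPP, 2 µM ATP in Tris pH 7.4 buffer with MgCl2, DTT, BSA; product NMN quantified by fluorescence (ex 421/em 480 nm) after derivatization with 2-acetylbenzofuran. Compounds at 3 nM–10 µM; control-normalized signal used for IC50.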

[2] = tested on: primary cultured cells of mouse fetus-derived dorsal root ganglia (DRGs); assay: Suppression of axonal degeneration after axotomy in DRG explant culture; format: cell-based; conditions: minimum concentration at which axonal degeneration was suppressed (DI 0.3 or less), 24 hours after axotomy; for minimal effective concentration: Mus musculus, read-out: Evaluation on protection against degeneration
Procedure, shortened: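 Embryonic ICR mouse DRG explants were cultured 7–8 days in nicotinamide-free neuronal medium with NGF, then axotomized by removing the cell bodies. Compound (100 pM–10 µM final, 0.1% DMSO) was added within 30 min, and neurites were imaged 24 h later. The result is the lowest concentration giving degeneration index ≤0.3.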

[3] = target: T2, hSARM1 (Homo sapiens, UniProt Q6SZW1); assay: Human SARM1 activity measurement in HEK293 cells transiently transfected with ΔN-hSARM1 (PC6 fluorescent probe); format: cell-based; set-up: expressed in transfected cells; host or cells: HEK293, pcDNA3 expression vector
T2 sequence (Q6SZW1 28-724): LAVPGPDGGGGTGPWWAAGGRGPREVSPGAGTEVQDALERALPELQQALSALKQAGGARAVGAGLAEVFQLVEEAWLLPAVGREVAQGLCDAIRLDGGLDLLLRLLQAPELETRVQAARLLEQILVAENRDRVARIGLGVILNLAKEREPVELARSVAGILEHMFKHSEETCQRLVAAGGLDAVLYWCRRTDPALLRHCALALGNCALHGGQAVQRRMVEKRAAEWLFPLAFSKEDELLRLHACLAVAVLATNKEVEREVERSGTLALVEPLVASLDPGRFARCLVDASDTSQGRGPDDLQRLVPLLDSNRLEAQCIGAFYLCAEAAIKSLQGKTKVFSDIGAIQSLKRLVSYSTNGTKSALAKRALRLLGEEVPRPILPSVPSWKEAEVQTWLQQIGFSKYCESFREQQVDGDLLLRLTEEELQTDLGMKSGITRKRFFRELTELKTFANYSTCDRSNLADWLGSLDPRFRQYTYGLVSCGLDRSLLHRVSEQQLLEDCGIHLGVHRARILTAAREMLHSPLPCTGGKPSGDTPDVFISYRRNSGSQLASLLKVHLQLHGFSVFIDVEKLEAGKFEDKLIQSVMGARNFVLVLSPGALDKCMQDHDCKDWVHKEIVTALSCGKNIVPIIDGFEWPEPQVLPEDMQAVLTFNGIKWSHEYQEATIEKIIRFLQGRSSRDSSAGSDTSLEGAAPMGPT
Procedure, shortened: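 HEK293 cells in nicotinamide-free DMEM with 5 μM nicotinamide, transiently transfected with mitochondrial-targeting-deleted ΔN-hSARM1; PC6 base-exchange fluorescent probe (50 μM) plus compound (30 μM) added ~8 h post-transfection. Fluorescence (ex 405/em 525 nm) read ~48 h from transfection; inhibition % versus transfected DMSO control, untransfected background subtracted.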

[4] = inhibition rate, compound 30 µM, PC6 50 µM, HEK293 cells expressing ΔN-hSARM1, approximately 48 hours from transfection, read-out: Evaluation on hSARM1 inhibitory

| SMILES | Evaluation on NAMPT inhibitory [1] | inhibition at 30 µM [3, 4] [%] | IC50 [1] [µM] | minimal effective concentration [2] [µM] | Evaluation on protection against degeneration [2] | inhibition at 30 µM ([3]; HEK293, read-out: Evaluation on hSARM1 inhibitory) [%] |
| --- | --- | --- | --- | --- | --- | --- |
| O=C(NCc1ccc(NC(=O)c2cccc(C(F)(F)F)c2)nc1)c1cccnc1 [compound 82] | ○ | > 75 | – | ≤ 0.01 | – | – |
| O=C(NCc1ccc(NC(=O)c2cccc(OC(F)(F)F)c2)nc1)c1cccnc1 [compound 86] | – | > 75 | ≥ 0.1 | 0.01 to 0.1 | – | – |
| CCC(C)(C)C(=O)Nc1ccc(CNC(=O)c2cccnc2)cn1 [compound 88] | ○ | > 50 | – | 0.01 to 0.1 | – | – |
| C#CCOc1ccc(C(=O)Nc2ccc(CNC(=O)c3cccnc3)cn2)cc1 [compound 91] | ○ | > 50 | – | ≤ 0.01 | – | – |
| NCCOCCOCCCCCCCCNC(=O)c1cccnc1 [compound 97] | – | > 75 | ≥ 0.1 | ≤ 0.01 | – | – |
| O=C(NCCOCCOc1ccccc1)c1cccnc1 [compound 98] | ○ | > 10 | – | 0.01 to 0.1 | – | – |
| COc1cccc(OCCOCCNC(=O)c2cccnc2)c1 [compound 99] | ○ | > 50 | – | 0.01 to 0.1 | – | – |
| NCCCOCCOCCCNC(=O)c1cccnc1 [compound 106] | ○ | > 25 | – | ≤ 0.01 | – | – |
| O=C(NCc1ccc(NC(=O)C2CCC2)cc1)c1cccnc1 [compound 109] | ○ | > 75 | – | ≤ 0.01 | – | – |
| O=C(NCc1ccc(NC(=O)c2ccccc2)c(F)c1)c1cccnc1 [compound 110] | ○ | – | – | – | A (A ≤ 0.01 µM) | > 25 |

Further lines, with some results ahead:

| Evaluation on NAMPT inhibitory [1] | inhibition at 30 µM [3, 4] [%] | IC50 [1] [µM] | SMILES | minimal effective concentration [2] [µM] | Evaluation on protection against degeneration [2] | inhibition at 30 µM ([3]; HEK293, read-out: Evaluation on hSARM1 inhibitory) [%] |
| --- | --- | --- | --- | --- | --- | --- |
| ○ | > 50 | – | O=C(NCc1ccc(NC(=O)c2ccccc2C(F)(F)F)nc1)c1cccnc1 [compound 81] | 0.01 to 0.1 | – | – |
| ○ | > 50 | – | O=C(NCc1ccc(NC(=O)c2ccc(C(F)(F)F)cc2)nc1)c1cccnc1 [compound 83] | ≤ 0.01 | – | – |
| – | > 75 | ≥ 0.1 | O=C(NCc1ccc(NC(=O)c2cc(F)cc(C(F)(F)F)c2)nc1)c1cccnc1 [compound 84] | 0.01 to 0.1 | – | – |
| ○ | > 75 | – | O=C(NCc1ccc(NC(=O)c2ccccc2OC(F)(F)F)nc1)c1cccnc1 [compound 85] | – | B (0.01 µM < B ≤ 0.1 µM) | – |
| ○ | > 50 | – | O=C(NCc1ccc(NC(=O)c2ccc(OC(F)(F)F)cc2)nc1)c1cccnc1 [compound 87] | ≤ 0.01 | – | – |
| ○ | > 50 | – | O=C(NCCCCCCN1CCN(CCOC(=O)c2cccnc2)CC1)c1cccnc1 [compound 95] | ≤ 0.01 | – | – |
| – | > 75 | ≥ 0.1 | NCCOCCCCCCCCNC(=O)c1cccnc1 [compound 96] | ≤ 0.01 | – | – |
| ○ | > 10 | – | O=C(NCCCC1NC(=O)C(CCCNC(=O)c2cccnc2)NC1=O)c1cccnc1 (stereo not drawn) [compound 103] | 0.01 to 0.1 | – | – |
| ○ | > 10 | – | O=C(NCCCCC1NC(=O)C(CCCCNC(=O)c2cccnc2)NC1=O)c1cccnc1 (stereo not drawn) [compound 104] | 0.1 to 1 | – | – |
| – | > 75 | ≥ 0.1 | O=C(NCc1ccc(NC(=O)C2CCOCC2)cc1)c1cccnc1 [compound 108] | ≤ 0.01 | – | – |
